Patent US10414811B2, “Protease-resistant lipidated GLP-1 analogs” (MEDIMMUNE LIMITED, priority 2015, dated 2019)
Read-outs that look alike come from different tables or passages of the source. Numbered stars: 1 amine (or outer) side, 2 acyl side, 3 side chain; on linkers, the order of the positions; unused ones are H or OH. Square brackets hold non-standard residues; d marks the D form. Side chains are listed from the residue outwards. Peptide text beside a SMILES is read from it. * marks the point of attachment. C18 diacid = O=C(O)CCCCCCCCCCCCCCCCC(=O)*; γGlu = O=C(O)[C@H](CCC(=O)[*:2])N[*:1]; αMeF = C[C@](N)(Cc1ccccc1)C(=O)O; αMeK = C[C@](N)(CCCCN)C(=O)O; αMeS = C[C@](N)(CO)C(=O)O; AEEA = NCCOCCOCC(=O)O; Aib = CC(C)(N)C(=O)O

Assays:
pepsin = molecular target: T1, pepsin (Sus scrofa, UniProt P00791); assay: Proteolytic resistance to pepsin (% remaining intact peptide, RP-HPLC AUC); assay type: in vitro ADME; conditions: pig, porcine pepsin, 37° C., pH 2.0, read-out: Percentage remaining intact peptide (AUC by RP-HPLC) upon incubation with pepsin; for remaining at 0.5 h: t = 30 min; for remaining at 1 h: t = 1 hr; for remaining at 2 h: t = 2 hr; for remaining at 4 h: t = 4 hr; for remaining at 8 h: t = 8 hr; for remaining at 24 h: t = 24 hr
T1 construct: purchased Sigma P7012
Method: Lyophilized porcine […] pepsin (Sigma: P7012) was reconstituted to afford a solution of 200 μg/mL (˜500 units/mL) in assay buffer (0.1 M HCl, pH 2.0) to give the enzyme stock solution. […] Ratio enzyme (units):peptide (μmoles)˜1:6. […] Ratio enzyme (units):peptide (μmoles)˜2:1.
Lyophilized porcine […] pepsin (Sigma: P7012) was reconstituted to 200 μg/mL (˜500 units/mL) in assay buffer (1.0 M HCl, pH 2.0) to give the enzyme stock solution.

trypsin = molecular target: T2, trypsin (Sus scrofa, UniProt P00761); assay: Proteolytic resistance to trypsin (% remaining intact peptide, RP-HPLC AUC); assay type: in vitro ADME; conditions: pig, porcine pancreatic trypsin, 37° C., pH 7.8, read-out: Percentage remaining intact peptide (AUC by RP-HPLC) upon incubation with trypsin; for remaining at 0.5 h: t = 30 min; for remaining at 1 h: t = 1 hr; for remaining at 2 h: t = 2 hr; for remaining at 4 h: t = 4 hr; for remaining at 8 h: t = 8 hr; for remaining at 24 h: t = 24 hr
T2 construct: purchased Sigma T7409
From the text: Ratio enzyme (units):peptide (μmoles)˜1:11. […] Ratio enzyme (units):peptide (μmoles)˜1.2:1.

Neprilysin = molecular target: T3, Neprilysin (Homo sapiens, UniProt P08473); assay: Proteolytic resistance to neprilysin (% remaining peptide, RP-HPLC AUC); assay type: in vitro ADME; conditions: 37° C., pH 8.3; for remaining at 0.5 h / remaining at 1 h / remaining at 2 h / remaining at 4 h / remaining at 8 h / remaining at 24 h: recombinant neprilysin; for remaining at 0.5 h: t = 30 min; for remaining at 1 h: t = 1 hr; for remaining at 2 h: t = 2 hr; for remaining at 4 h: t = 4 hr; for remaining at 8 h: t = 8 hr; for remaining at 24 h: t = 24 hr, read-out: Percentage remaining peptide (AUC at specified time-point by RP-HPLC) upon incubation with neprilysin, t = 24 hr
T3 construct: purchased R&D Systems 1182-ZNC-010
Method: Ratio enzyme (units):peptide (μmoles)˜1:33. […] Ratio enzyme (units):peptide (μmoles)˜1:2.5.
15 μL aliquots (˜15 μg initial peptide) of the peptide-enzyme mixture were periodically withdrawn (t=0, 30 mins, 1 hr, 2 hr, 4 hr, 8 hr, 24 hr) and quenched immediately by addition to an equal volume (15 μL) of 5% TFA (v/v) in 1:1 water/acetonitrile to arrest proteolytic activity. 20 μL aliquots (˜10 μg initial peptide) were analyzed by LC/MS and/or analytical RP-HPLC as follows: LC/MS method: Agilent Polaris C8-A column (4.6×100 mm, 3 micron) eluted with a linear binary gradient of 10-90% MeCN (0.1% TFA v/v) in water (0.1% TFA v/v) over 30 mins at 1.5 mL min-1 at ambient temperature with detection by both UV absorption at 210 nm and ionization using a Waters 3100 mass detector (ESI+ mode). Peptide fragments deriving from enzymatic hydrolysis were identified by molecular weight, allowing location of the site of cleavage. Analytical RP-HPLC method: Agilent Polaris C8-A column (4.6×100 mm, 3 micron) eluted with a linear binary gradient of 10-90% MeCN (0.1% TFA v/v) in water (0.1% TFA v/v) over either 10 or 15 mins at 1.5 mL min^−1 at 40° C. with detection by UV absorption at 210 nm. Manual integration (AUC) allowed estimation of remaining intact peptide over the time course of the experiment.
25 μL aliquots (˜6 μg initial peptide) were analyzed by LC/MS and/or analytical RP-HPLC as follows: LC/MS method: Agilent Polaris C8-A column (4.6×100 mm, 3 micron) eluted with a linear binary gradient of 10-90% MeCN (0.1% TFA v/v) in water (0.1% TFA v/v) over 30 mins at 1.5 mL min^−1 at ambient temperature with detection by both UV absorption at 210 nm and ionization using a Waters 3100 mass detector (ESP mode). Peptide fragments deriving from enzymatic hydrolysis were identified by molecular weight, allowing location of the site of cleavage. Analytical RP-HPLC method: Agilent Polaris C8-A column (4.6×100 mm, 3 micron) eluted with a linear binary gradient of 10-90% MeCN (0.1% TFA v/v) in water (0.1% TFA v/v) over either 10 or 15 mins at 1.5 mL min^−1 at 40° C. with detection by UV absorption at 210 nm. Manual integration (AUC) allowed estimation of remaining intact peptide over the time course of the experiment.

[1] = molecular target: T4, human GLP-1 receptor (GLP-1R) (Homo sapiens, UniProt P43220); assay: cAMP assay, human GLP-1R cells; assay type: cell-based
T4 construct: expressed in transfected cells
How it was run: (§1)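 Peptide-stimulated cAMP measured by two-step HTRF after a 30 min room-temperature incubation with receptor-expressing cells (hGLP-1R, hGIPR at 1×10^5 cells/ml; hGCGR at 2×10^5 cells/ml). Duplicate dilutions; EC50 from 4-parameter logistic fit of % Delta F.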

[2] = molecular target: T5, human glucagon receptor (GCGR) (Homo sapiens, UniProt P47871); assay: cAMP assay, human GCGR cells; assay type: cell-based; conditions: cAMP assay
T5 construct: expressed in transfected cells
How it was run: as §1

GLP-1R (INS1e assay) = molecular target: T6, GLP-1R (INS1e assay) (Rattus norvegicus, UniProt P32301); assay: INS1e assay, cAMP activity at GLP-1R; assay type: cell-based; conditions: mono-lipidated peptides
T6 construct: endogenous in cells; host or cells: INS-1E cells
T6 sequence (P32301 22-463): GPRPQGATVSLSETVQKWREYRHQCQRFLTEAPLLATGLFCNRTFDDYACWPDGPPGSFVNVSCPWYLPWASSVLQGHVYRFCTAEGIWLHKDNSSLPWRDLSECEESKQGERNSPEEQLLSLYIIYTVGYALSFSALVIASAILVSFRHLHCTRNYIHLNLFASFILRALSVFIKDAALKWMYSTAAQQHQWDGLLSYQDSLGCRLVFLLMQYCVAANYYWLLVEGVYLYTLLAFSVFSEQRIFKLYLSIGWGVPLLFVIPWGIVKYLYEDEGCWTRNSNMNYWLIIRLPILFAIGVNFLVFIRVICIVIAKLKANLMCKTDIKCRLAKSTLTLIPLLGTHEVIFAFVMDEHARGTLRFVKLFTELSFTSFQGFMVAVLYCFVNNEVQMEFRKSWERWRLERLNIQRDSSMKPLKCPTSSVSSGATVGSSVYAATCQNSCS
How it was run: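 cAMP was quantified by two-step HTRF, using anti-cAMP cryptate donor and cAMP-d2 acceptor, each diluted 1/20 in conjugate and lysis buffer. EC50 values of the synthetic peptides were derived from the cAMP readout.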

[3] = molecular target: T7, human glucose-dependent insulinotropic peptide receptor (GIPR) (Homo sapiens, UniProt P48546); assay: cAMP assay, human GIPR cells; assay type: cell-based; conditions: cAMP assay
T7 construct: expressed in transfected cells
T7 sequence (P48546 22-466): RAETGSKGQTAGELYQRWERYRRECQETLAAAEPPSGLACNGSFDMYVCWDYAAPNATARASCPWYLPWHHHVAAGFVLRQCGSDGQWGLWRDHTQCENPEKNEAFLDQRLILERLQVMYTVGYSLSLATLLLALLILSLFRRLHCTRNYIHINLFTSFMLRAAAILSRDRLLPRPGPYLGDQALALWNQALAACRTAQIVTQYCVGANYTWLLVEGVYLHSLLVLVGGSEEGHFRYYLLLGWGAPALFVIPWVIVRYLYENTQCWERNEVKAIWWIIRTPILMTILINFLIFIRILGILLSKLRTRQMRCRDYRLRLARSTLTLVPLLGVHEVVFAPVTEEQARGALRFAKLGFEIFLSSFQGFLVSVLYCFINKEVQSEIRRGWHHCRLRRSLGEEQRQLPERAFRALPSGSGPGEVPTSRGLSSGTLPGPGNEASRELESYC
How it was run: as §1

[4] = cAMP assay, first determination (n1), read-out: Primary assay EC50 GLP-1R n1
[5] = cAMP assay, second determination (n2), read-out: Primary assay EC50 GLP-1R n2
[6] = mean of n1 and n2, read-out: Mean pM GLP-1R
[7] = first determination (n1), read-out: Primary assay EC50 Gluc-R (n1)
[8] = second determination (n2), read-out: Primary assay EC50 Gluc-R (n2)
[9] = mean of n1 and n2, read-out: INS1e assay EC50 Mean pM GLP-1R
[10] = replicate n1, read-out: INS1e assay EC50 GLP-1R n1
[11] = replicate n2, read-out: INS1e assay EC50 GLP-1R n2
[12] = first determination (n1), read-out: Primary assay EC50 GIP-R (n1)
[13] = second determination (n2), read-out: Primary assay EC50 GIP-R (n2)

T2 sequence (P00761 9-231): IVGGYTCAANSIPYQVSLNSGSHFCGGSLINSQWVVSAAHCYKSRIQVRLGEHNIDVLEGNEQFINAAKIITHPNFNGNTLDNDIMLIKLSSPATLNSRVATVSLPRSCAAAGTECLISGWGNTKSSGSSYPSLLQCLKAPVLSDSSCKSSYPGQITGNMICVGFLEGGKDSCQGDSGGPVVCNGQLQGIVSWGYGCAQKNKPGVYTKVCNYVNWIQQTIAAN
T4 sequence (P43220 24-463): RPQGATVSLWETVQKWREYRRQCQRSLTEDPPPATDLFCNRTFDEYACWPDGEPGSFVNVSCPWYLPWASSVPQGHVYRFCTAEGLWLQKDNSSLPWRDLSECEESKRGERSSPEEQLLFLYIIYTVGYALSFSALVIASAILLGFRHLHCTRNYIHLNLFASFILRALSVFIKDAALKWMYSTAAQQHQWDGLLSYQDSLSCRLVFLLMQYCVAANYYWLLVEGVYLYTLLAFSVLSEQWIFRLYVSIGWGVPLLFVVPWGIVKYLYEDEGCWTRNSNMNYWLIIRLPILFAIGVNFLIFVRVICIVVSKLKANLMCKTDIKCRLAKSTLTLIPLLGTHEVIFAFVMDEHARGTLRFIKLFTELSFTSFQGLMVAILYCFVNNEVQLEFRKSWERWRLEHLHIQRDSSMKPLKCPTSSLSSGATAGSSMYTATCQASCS
T5 sequence (P47871 26-477): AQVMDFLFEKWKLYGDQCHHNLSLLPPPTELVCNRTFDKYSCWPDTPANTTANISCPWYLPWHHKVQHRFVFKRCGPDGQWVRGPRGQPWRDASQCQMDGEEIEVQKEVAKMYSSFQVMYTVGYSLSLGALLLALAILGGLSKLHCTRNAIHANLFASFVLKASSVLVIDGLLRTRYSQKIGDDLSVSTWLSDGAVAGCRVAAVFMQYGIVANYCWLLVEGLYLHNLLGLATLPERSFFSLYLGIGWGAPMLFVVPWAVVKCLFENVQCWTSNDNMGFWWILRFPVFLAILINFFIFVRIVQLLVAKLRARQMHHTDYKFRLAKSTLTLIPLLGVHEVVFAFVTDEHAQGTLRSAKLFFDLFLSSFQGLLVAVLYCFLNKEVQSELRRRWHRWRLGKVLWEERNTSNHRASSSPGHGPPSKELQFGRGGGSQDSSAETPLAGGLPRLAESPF
T1 sequence (P00791 60-385): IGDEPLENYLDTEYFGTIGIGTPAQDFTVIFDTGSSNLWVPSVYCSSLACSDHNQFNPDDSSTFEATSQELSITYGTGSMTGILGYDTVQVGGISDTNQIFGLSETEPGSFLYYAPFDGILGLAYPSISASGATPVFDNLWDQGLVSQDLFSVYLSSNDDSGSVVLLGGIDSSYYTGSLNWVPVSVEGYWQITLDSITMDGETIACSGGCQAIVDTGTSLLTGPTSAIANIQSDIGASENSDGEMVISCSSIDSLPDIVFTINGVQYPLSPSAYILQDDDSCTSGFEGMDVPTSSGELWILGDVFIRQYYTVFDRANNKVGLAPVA
T3 sequence (P08473 whole entry): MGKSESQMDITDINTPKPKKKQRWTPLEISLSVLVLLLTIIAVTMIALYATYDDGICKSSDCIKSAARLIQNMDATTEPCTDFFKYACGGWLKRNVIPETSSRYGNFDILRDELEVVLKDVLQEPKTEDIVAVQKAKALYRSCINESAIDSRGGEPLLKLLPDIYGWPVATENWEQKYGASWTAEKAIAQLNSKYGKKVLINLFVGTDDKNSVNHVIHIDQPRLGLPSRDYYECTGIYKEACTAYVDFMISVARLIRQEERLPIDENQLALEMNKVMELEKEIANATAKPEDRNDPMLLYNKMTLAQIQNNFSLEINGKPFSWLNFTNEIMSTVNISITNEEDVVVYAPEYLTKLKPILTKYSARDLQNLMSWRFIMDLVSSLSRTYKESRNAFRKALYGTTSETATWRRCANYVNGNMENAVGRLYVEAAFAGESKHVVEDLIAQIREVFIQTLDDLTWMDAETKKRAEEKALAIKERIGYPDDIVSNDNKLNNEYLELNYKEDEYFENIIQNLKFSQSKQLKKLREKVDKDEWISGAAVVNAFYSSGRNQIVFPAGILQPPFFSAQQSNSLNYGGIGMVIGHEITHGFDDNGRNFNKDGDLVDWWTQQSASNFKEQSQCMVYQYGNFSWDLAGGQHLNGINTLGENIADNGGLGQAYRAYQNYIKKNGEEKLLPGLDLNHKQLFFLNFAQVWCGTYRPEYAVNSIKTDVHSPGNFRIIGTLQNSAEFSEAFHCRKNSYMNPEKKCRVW

remaining at 0.5 h (pepsin) [%] | remaining at 1 h (pepsin) [%] | remaining at 2 h (pepsin) [%] | remaining at 4 h (pepsin) [%] | remaining at 8 h (pepsin) [%] | remaining at 24 h (pepsin) [%] | remaining at 0.5 h (trypsin) [%] | remaining at 1 h (trypsin) [%] | remaining at 2 h (trypsin) [%] | remaining at 4 h (trypsin) [%] | remaining at 8 h (trypsin) [%] | remaining at 24 h (trypsin) [%] | remaining at 0.5 h (Neprilysin) [%] | remaining at 1 h (Neprilysin) [%] | remaining at 2 h (Neprilysin) [%] | remaining at 4 h (Neprilysin) [%] | remaining at 8 h (Neprilysin) [%] | remaining at 24 h (Neprilysin) [%] | Percentage remaining peptide (AUC at specified time-point by RP-HPLC) upon incubation with neprilysin, t = 0 (Neprilysin) [%] | EC50 [1, 4] [pM] | SMILES | also measured
96.5 | 94.7 | 92.2 | 88.2 | 86 | 85.3 | 92.3 | 86.2 | 76.8 | 48.6 | 39.8 | 27.4 | 97.4 | 95.4 | 96.4 | 95.4 | 93.9 | 94.9 | 100 | 22.1 | CC[C@H](C)[C@H](NC(=O)[C@H](Cc1ccccc1)NC(=O)[C@H](CCC(=O)O)NC(=O)[C@](C)(CCCCN)NC(=O)[C@H](C)NC(=O)[C@H](C)NC(=O)[C@H](CCC(=O)O)NC(=O)CNC(=O)[C@H](CCC(=O)O)NC(=O)[C@H](CC(C)C)NC(=O)[C@](C)(Cc1ccccc1)NC(=O)[C@H](CO)NC(=O)[C@](C)(CO)NC(=O)[C@@H](NC(=O)[C@H](CC(=O)O)NC(=O)[C@H](CO)NC(=O)[C@@H](NC(=O)[C@](C)(Cc1ccccc1)NC(=O)[C@H](CO)NC(=O)CNC(=O)[C@H](CCC(=O)O)NC(=O)C(C)(C)NC(=O)[C@@H](N)Cc1c[nH]cn1)[C@@H](C)O)C(C)C)C(=O)N[C@@H](CCCCNC(=O)COCCOCCNC(=O)COCCOCCNC(=O)CC[C@H](NC(=O)CCCCCCCCCCCCCCCCC(=O)O)C(=O)O)C(=O)N[C@@H](Cc1c[nH]c2ccccc12)C(=O)N[C@H](C(=O)N[C@H](C(=O)N[C@@H](CCC(=O)O)C(=O)NCC(=O)NCC(N)=O)C(C)C)C(C)C [compound 68] (H-H[Aib]EGS[αMeF]TSDV[αMeS]S[αMeF]LEGEAA[αMeK]EFIK([AEEA-AEEA-γGlu-C18 diacid])WVVEGG-NH2; N-terminus assumed) | EC50 [1, 5]: 15.5 pM; EC50 [1, 6]: 18.8 pM; EC50 [2, 7]: ≥ 25 nM; EC50 [2, 8]: ≥ 25 nM; EC50 (GLP-1R (INS1e assay); [9]): 3780 pM; EC50 (GLP-1R (INS1e assay); [10]): 2690 pM; EC50 (GLP-1R (INS1e assay); [11]): 4870 pM; EC50 [3, 12]: ≥ 25 nM; EC50 [3, 13]: ≥ 25 nM
89.1 | 80.8 | 71.4 | 60.6 | 45.9 | 9.4 | 93 | 89.2 | 83.5 | 75.6 | 68.9 | 56.5 | 96.8 | 96.5 | 93 | 93.9 | 89.5 | 90 | 100 | 3.9 | CC[C@H](C)[C@H](NC(=O)[C@H](Cc1ccccc1)NC(=O)[C@H](CCC(=O)O)NC(=O)[C@H](CCCCNC(=O)COCCOCCNC(=O)COCCOCCNC(=O)CC[C@H](NC(=O)CCCCCCCCCCCCCCCCC(=O)O)C(=O)O)NC(=O)[C@H](C)NC(=O)[C@H](C)NC(=O)[C@H](CCC(=O)O)NC(=O)CNC(=O)[C@H](CCC(=O)O)NC(=O)[C@H](CC(C)C)NC(=O)[C@](C)(Cc1ccccc1)NC(=O)[C@H](CO)NC(=O)[C@](C)(CO)NC(=O)[C@@H](NC(=O)[C@H](CC(=O)O)NC(=O)[C@H](CO)NC(=O)[C@@H](NC(=O)[C@](C)(Cc1ccccc1)NC(=O)[C@H](CO)NC(=O)CNC(=O)[C@H](CCC(=O)O)NC(=O)C(C)(C)NC(=O)[C@@H](N)Cc1c[nH]cn1)[C@@H](C)O)C(C)C)C(=O)N[C@@H](C)C(=O)N[C@@](C)(Cc1ccccc1)C(=O)N[C@H](C(=O)N[C@H](C(=O)N[C@@](C)(CCCCN)C(=O)NCC(=O)NCC(N)=O)C(C)C)C(C)C [compound 48] | EC50 [1, 5]: 8.2 pM; EC50 [1, 6]: 6.1 pM; EC50 [2, 7]: ≥ 26 nM; EC50 [2, 8]: ≥ 26 nM; EC50 (GLP-1R (INS1e assay); [9]): 800 pM; EC50 (GLP-1R (INS1e assay); [10]): 729 pM; EC50 (GLP-1R (INS1e assay); [11]): 871 pM; EC50 [3, 12]: ≥ 26 nM; EC50 [3, 13]: ≥ 26 nM
